Patent US20200069679A1, “NINTEDANIB FOR USE IN METHODS FOR THE TREATMENT OF INTERSTITIAL LUNG DISEASES BY COADMINISTRATION WITH OLADATEROL” (Boehringer Ingelheim International GmbH, priority 2016, published 2020)

System: TGF-β induced ET-1 release in cultured human lung fibroblasts (IPF-HLF)
Experiment: TGF-β induced ET-1 release in cultured human lung fibroblasts from IPF patients (ELISA of supernatant)
Assay type: cell-based
Conditions: IPF-HLF stimulated with TGF-β for 48 h, n=6 incubations, normalized to unstimulated (=100% inhibition) and TGF-β-stimulated (=0% inhibition) ET-1 levels
Procedure: The principle of the assay is the incubation of IPF-HLF with transforming growth factor beta (TGF-β) for 48 h. In the cell culture supernatant the concentration of the pro-fibrotic mediator endothelin-1 (ET-1) was determined by enzyme linked immune sorbent assay.
HLFs from 5 different patients with idiopathic pulmonary fibrosis (IPF) were used to do repeated measurements. For the control groups without TGF-β stimulation, data sets from 11 incubations were included and for TGF-β-stimulated fibroblasts data sets from 12 incubations were included. For all olodaterol and/or nintedanib-treated groups, n=6 incubations were conducted. The experiments were conducted in the presence of nintedanib at 30 nM concentration and/or olodaterol at 1 pM (FIG. 1), 10 pM (FIG. 2) and 100 pM (FIG. 3) concentrations, respectively.

| Compound | reduction of ET-1 release (nintedanib at 30 nM) [%] | reduction of ET-1 release (olodaterol at 1-100 pM) |
| --- | --- | --- |
| COC(=O)c1ccc2c(c1)NC(=O)/C2=C(\Nc1ccc(N(C)C(=O)CN2CCN(C)CC2)cc1)c1ccccc1 [nintedanib] | 7 | – |
| COc1ccc(CC(C)(C)NC[C@H](O)c2cc(O)cc3c2OCC(=O)N3)cc1 [olodaterol] | – | 1%-47% |
